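These data come from cells grown in 96-well plates and exposed to compound for 48 hours at five concentrations. GI50 = concentration required for 50% inhibition of growth. TGI marks complete inhibition of growth.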
What was measured:
Assay in all cases: NCI anticancer screen, dose series, 48 h
OVCAR-4 ovarian = tested on: OVCAR-4 ovarian
HCT-15 colon = tested on: HCT-15 colon
UACC-257 melanoma = tested on: UACC-257 melanoma
MOLT-4 leukemia = tested on: MOLT-4 leukemia
NCI-H522 lung = tested on: NCI-H522 lung
CAKI-1 renal = tested on: CAKI-1 renal
MALME-3M melanoma = tested on: MALME-3M melanoma
DU-145 prostate = tested on: DU-145 prostate
786-0 renal = tested on: 786-0 renal
SR leukemia = tested on: SR leukemia
T-47D breast = tested on: T-47D breast
U251 CNS = tested on: U251 CNS
SK-OV-3 ovarian = tested on: SK-OV-3 ovarian
SF-295 CNS = tested on: SF-295 CNS
K-562 leukemia = tested on: K-562 leukemia
RPMI-8226 leukemia = tested on: RPMI-8226 leukemia
A549 NSCLC = tested on: A549 NSCLC
SF-539 CNS = tested on: SF-539 CNS
NCI-H460 lung = tested on: NCI-H460 lung
LOX IMVI melanoma = tested on: LOX IMVI melanoma
SK-MEL-28 melanoma = tested on: SK-MEL-28 melanoma
SNB-19 CNS = tested on: SNB-19 CNS
MCF7 breast = tested on: MCF7 breast
MDA-MB-435 = tested on: MDA-MB-435
ACHN renal = tested on: ACHN renal
SN12C renal = tested on: SN12C renal
BT-549 breast = tested on: BT-549 breast
HT29 colon = tested on: HT29 colon
SK-MEL-5 melanoma = tested on: SK-MEL-5 melanoma
SW-620 colon = tested on: SW-620 colon
HOP-92 NSCLC = tested on: HOP-92 NSCLC
UACC-62 melanoma = tested on: UACC-62 melanoma
OVCAR-3 ovarian = tested on: OVCAR-3 ovarian
NCI-H226 lung = tested on: NCI-H226 lung
HOP-62 NSCLC = tested on: HOP-62 NSCLC
HS 578T breast = tested on: HS 578T breast
SK-MEL-2 melanoma = tested on: SK-MEL-2 melanoma
SNB-75 CNS = tested on: SNB-75 CNS
IGROV1 ovarian = tested on: IGROV1 ovarian
CCRF-CEM leukemia = tested on: CCRF-CEM leukemia
MDA-MB-231 breast = tested on: MDA-MB-231 breast
EKVX NSCLC = tested on: EKVX NSCLC
OVCAR-8 ovarian = tested on: OVCAR-8 ovarian
SF-268 CNS = tested on: SF-268 CNS
M14 melanoma = tested on: M14 melanoma
NCI/ADR-RES ovarian = tested on: NCI/ADR-RES ovarian
PC-3 prostate = tested on: PC-3 prostate
UO-31 renal = tested on: UO-31 renal
OVCAR-5 ovarian = tested on: OVCAR-5 ovarian
TK-10 renal = tested on: TK-10 renal
HCC-2998 colon = tested on: HCC-2998 colon
A498 renal = tested on: A498 renal
RXF 393 renal = tested on: RXF 393 renal
KM12 colon = tested on: KM12 colon
NCI-H23 lung = tested on: NCI-H23 lung

Compound: C=C1C(=O)O[C@@H]2[C@@H]3O[C@@H](C[C@@H]13)[C@](C)(O)CC/C=C(\C)CCC[C@H]2C
- GI50 (OVCAR-4 ovarian): 2.38 µM
- TGI (OVCAR-4 ovarian): > 23 µM
- GI50 (HCT-15 colon): 1.39 µM
- TGI (HCT-15 colon): 2.74 µM
- GI50 (UACC-257 melanoma): 4.9 µM
- TGI (UACC-257 melanoma): 14.9 µM
- GI50 (MOLT-4 leukemia): 1.39 µM
- TGI (MOLT-4 leukemia): 3.37 µM
- GI50 (NCI-H522 lung): 1.65 µM
- TGI (NCI-H522 lung): 4.05 µM
- GI50 (CAKI-1 renal): 0.957 µM
- TGI (CAKI-1 renal): 2.59 µM
- GI50 (MALME-3M melanoma): 0.18 µM
- TGI (MALME-3M melanoma): 2.61 µM
- GI50 (DU-145 prostate): 3.08 µM
- TGI (DU-145 prostate): 12.6 µM
- GI50 (786-0 renal): 2.56 µM
- TGI (786-0 renal): 9.03 µM
- GI50 (SR leukemia): 0.395 µM
- TGI (SR leukemia): 2.05 µM
- TGI (T-47D breast): > 22.6 µM
- GI50 (U251 CNS): 2.84 µM
- TGI (U251 CNS): 12.8 µM
- GI50 (SK-OV-3 ovarian): 28.7 µM
- TGI (SK-OV-3 ovarian): > 50.4 µM
- GI50 (SF-295 CNS): 9.38 µM
- TGI (SF-295 CNS): 23.9 µM
- GI50 (K-562 leukemia): 0.416 µM
- TGI (K-562 leukemia): 4.01 µM
- GI50 (RPMI-8226 leukemia): 0.258 µM
- TGI (RPMI-8226 leukemia): 1.47 µM
- GI50 (A549 NSCLC): 9.21 µM
- TGI (A549 NSCLC): 25.2 µM
- GI50 (SF-539 CNS): 13 µM
- TGI (SF-539 CNS): 25.7 µM
- GI50 (NCI-H460 lung): > 100 µM
- TGI (NCI-H460 lung): > 100 µM
- GI50 (LOX IMVI melanoma): 1.51 µM
- TGI (LOX IMVI melanoma): 3 µM
- GI50 (SK-MEL-28 melanoma): 2.36 µM
- TGI (SK-MEL-28 melanoma): > 21.8 µM
- GI50 (SNB-19 CNS): 29 µM
- TGI (SNB-19 CNS): > 49 µM
- GI50 (MCF7 breast): > 100 µM
- TGI (MCF7 breast): > 100 µM
- GI50 (MDA-MB-435): 1.97 µM
- TGI (MDA-MB-435): 6.17 µM
- GI50 (ACHN renal): 0.926 µM
- TGI (ACHN renal): 2.34 µM
- GI50 (SN12C renal): 2.06 µM
- TGI (SN12C renal): 6.64 µM
- GI50 (BT-549 breast): 1.84 µM
- TGI (BT-549 breast): 4.86 µM
- GI50 (HT29 colon): 3.69 µM
- TGI (HT29 colon): > 33.9 µM
- GI50 (SK-MEL-5 melanoma): 5.57 µM
- TGI (SK-MEL-5 melanoma): 13.9 µM
- GI50 (SW-620 colon): 0.739 µM
- TGI (SW-620 colon): 2.31 µM
- GI50 (HOP-92 NSCLC): 0.5 µM
- TGI (HOP-92 NSCLC): 2.39 µM
- GI50 (UACC-62 melanoma): 3.51 µM
- TGI (UACC-62 melanoma): 14.1 µM
- GI50 (OVCAR-3 ovarian): 1.65 µM
- TGI (OVCAR-3 ovarian): 3.86 µM
- GI50 (NCI-H226 lung): 2.08 µM
- TGI (NCI-H226 lung): 7.4 µM
- TGI (HOP-62 NSCLC): 31.7 µM
- GI50 (HS 578T breast): 5.99 µM
- TGI (HS 578T breast): 24.9 µM
- GI50 (SK-MEL-2 melanoma): 9.32 µM
- TGI (SK-MEL-2 melanoma): 24.2 µM
- GI50 (SNB-75 CNS): 14.1 µM
- TGI (SNB-75 CNS): > 35.8 µM
- GI50 (IGROV1 ovarian): 1.06 µM
- TGI (IGROV1 ovarian): 4.92 µM
- GI50 (CCRF-CEM leukemia): 0.394 µM
- TGI (CCRF-CEM leukemia): 1.91 µM
- GI50 (MDA-MB-231 breast): 1.51 µM
- TGI (MDA-MB-231 breast): 4.14 µM
- GI50 (EKVX NSCLC): 7.55 µM
- TGI (EKVX NSCLC): 20 µM
- GI50 (OVCAR-8 ovarian): 1.91 µM
- TGI (OVCAR-8 ovarian): 10.4 µM
- GI50 (SF-268 CNS): > 100 µM
- TGI (SF-268 CNS): > 100 µM
- GI50 (M14 melanoma): 1.83 µM
- TGI (M14 melanoma): 3.75 µM
- GI50 (NCI/ADR-RES ovarian): 0.523 µM
- TGI (NCI/ADR-RES ovarian): 2.13 µM
- GI50 (PC-3 prostate): 1.76 µM
- TGI (PC-3 prostate): 5.27 µM
- GI50 (UO-31 renal): 1.25 µM
- TGI (UO-31 renal): 2.79 µM
- GI50 (OVCAR-5 ovarian): 3.19 µM
- TGI (OVCAR-5 ovarian): 12.6 µM
- GI50 (TK-10 renal): 1.5 µM
- TGI (TK-10 renal): 3.26 µM
- GI50 (HCC-2998 colon): 0.83 µM
- TGI (HCC-2998 colon): 3.88 µM
- GI50 (A498 renal): 20.9 µM
- TGI (A498 renal): 35.5 µM
- GI50 (RXF 393 renal): 1.77 µM
- GI50 (KM12 colon): 6.35 µM
- TGI (KM12 colon): 18.1 µM
- TGI (NCI-H23 lung): 3.67 µM

Source: PubChem BioAssay (NCI)
